Data reported in EP4660184A1 (Eurofarma Laboratórios S.A., priority 2023, dated 2024).

Experiments:
[1] = biological target: T1, human sodium channels Nav 1.8 (Homo sapiens, UniProt Q9Y5Y9); assay: Automated whole-cell voltage-clamp (ScreenPatch 384P) sodium current block, Nav 1.8; format: cell-based; details: CHO cells stably expressing human Nav 1.8; inactivation step -40 mV for 8 seconds, test step 10 mV (TP1A); exposure at least five minutes; room temperature; mean if two or more assays; read-out: Nav1.8 IC50
T1 construct: expressed in transfected cells
T1 sequence (Q9Y5Y9 whole entry): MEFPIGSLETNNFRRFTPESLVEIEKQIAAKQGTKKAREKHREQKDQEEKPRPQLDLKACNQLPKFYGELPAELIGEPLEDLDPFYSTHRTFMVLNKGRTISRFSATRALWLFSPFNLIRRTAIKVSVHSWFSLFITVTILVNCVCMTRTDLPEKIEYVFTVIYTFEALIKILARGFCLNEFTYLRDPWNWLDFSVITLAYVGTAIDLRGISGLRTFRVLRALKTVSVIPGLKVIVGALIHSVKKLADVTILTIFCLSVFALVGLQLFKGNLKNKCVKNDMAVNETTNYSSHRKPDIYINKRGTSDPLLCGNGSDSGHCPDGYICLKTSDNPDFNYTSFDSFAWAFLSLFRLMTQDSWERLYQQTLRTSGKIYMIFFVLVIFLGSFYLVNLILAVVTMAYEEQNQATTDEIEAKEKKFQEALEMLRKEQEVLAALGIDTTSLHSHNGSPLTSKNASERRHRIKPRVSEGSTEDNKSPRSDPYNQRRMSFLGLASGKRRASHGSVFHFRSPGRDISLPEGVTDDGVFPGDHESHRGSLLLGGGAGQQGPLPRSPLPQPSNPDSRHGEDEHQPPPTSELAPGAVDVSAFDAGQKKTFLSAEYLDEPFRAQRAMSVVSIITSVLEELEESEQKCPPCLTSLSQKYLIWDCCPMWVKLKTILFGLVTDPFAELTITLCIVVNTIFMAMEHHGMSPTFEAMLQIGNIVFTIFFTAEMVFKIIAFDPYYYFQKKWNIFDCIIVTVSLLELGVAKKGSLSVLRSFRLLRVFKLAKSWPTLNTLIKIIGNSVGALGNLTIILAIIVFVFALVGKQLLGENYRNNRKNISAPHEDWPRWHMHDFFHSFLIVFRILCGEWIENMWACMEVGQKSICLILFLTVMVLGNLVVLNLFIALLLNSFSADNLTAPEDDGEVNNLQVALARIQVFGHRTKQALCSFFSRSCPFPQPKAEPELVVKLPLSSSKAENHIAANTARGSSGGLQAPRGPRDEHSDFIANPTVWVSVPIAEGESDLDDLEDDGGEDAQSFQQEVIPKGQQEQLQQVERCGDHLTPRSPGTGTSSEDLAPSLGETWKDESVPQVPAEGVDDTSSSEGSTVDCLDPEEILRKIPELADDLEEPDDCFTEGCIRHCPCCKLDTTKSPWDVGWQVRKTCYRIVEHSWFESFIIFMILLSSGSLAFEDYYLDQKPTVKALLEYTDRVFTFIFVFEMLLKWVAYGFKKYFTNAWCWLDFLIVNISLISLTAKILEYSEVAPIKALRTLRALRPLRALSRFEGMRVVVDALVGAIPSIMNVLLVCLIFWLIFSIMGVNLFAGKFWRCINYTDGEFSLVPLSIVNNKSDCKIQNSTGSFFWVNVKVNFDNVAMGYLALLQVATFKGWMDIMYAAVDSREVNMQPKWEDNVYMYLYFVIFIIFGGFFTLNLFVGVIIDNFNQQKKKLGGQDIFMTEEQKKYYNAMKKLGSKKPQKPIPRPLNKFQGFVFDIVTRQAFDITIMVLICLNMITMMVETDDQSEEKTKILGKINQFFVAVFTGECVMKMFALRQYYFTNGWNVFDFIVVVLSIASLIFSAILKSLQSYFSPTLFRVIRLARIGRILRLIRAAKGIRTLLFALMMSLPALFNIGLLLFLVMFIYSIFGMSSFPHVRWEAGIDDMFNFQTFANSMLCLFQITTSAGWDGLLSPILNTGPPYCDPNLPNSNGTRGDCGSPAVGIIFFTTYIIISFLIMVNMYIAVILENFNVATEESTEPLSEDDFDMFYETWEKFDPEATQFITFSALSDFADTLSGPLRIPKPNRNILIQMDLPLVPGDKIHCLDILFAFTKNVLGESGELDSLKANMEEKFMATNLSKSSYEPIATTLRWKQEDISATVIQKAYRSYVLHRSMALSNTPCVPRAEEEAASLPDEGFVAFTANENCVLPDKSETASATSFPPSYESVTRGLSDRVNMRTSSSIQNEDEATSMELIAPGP
Method: (§1) Biological assays were performed on Chinese hamster ovary (CHO) cells that express human sodium channels Nav 1.8 or Nav 1.7 in a stable manner.
(§2) The experimental protocol voltage-clamp using the whole cell configuration was established on the automated ScreenPatch® 384P platform (SP384PE, Nanion Technologies, Livingston, NJ) and the results were recorded with a Nanion 384-well Patch Clamp chip (NPC) (Nanion Technologies, Livingston, NJ).
(§3) Formula I compounds were diluted in eight concentrations in the extracellular solution composed of saline saline solution, buffered with HEPES (mM): NaCl, 137; KCl, 4; CaCl2, 3,8; MgCl2, 1; HEPES, 10; Glucose, 10; pH 7.4. The […], 50; CsF, 90; MgCl2, 5; EGTA, 5; HEPES, 10; pH 7.2. The duration of exposure of each compound with cells expressing Nav 1.7 or Nav 1.8 was at least five minutes and the assays were performed at room temperature.
(§4) The measurements of the sodium currents of Nav 1.8 and Nav 1.7 were obtained using the voltage protocol described below.
(§5) A holding voltage of -100 mV was established followed by an inactivation voltage step at -40 mV for 8 seconds, followed by a step of -100 mV for 20 ms, followed by a 20 ms step for 10 mV for Nav 1.8 or 0 mV for Nav 1.7 (TP1A) before returning to the holding voltage of -100 mV.
(§6) The protocol was repeated at a frequency of 0.05 Hz and the amplitude of the current was quantified throughout the recording of the TP1A phase. The variation in the amplitude of the peak current was evaluated according to the formula described below, after exposing the cells expressing the channels to each concentration of the different compounds: % Block = (1−(ITP1A,molecule/ITP1A,basal)×100%, [formula] wherein ITP1A,basal and ITP1A,molecule represent the peaks of sodium current input into TP1A before exposure to the compound and in the presence of the compound, respectively.
(§7) Data were obtained by nonlinear regression (nonlinear least squares) with XLfit for Excel (Microsoft, Redmond, WA).
(§8) The compounds were tested in at least one assay to obtain the value of CI50. For compounds that were tested in two or more assays, the results are described as the mean of the CI50 values.

[2] = biological target: T2, human sodium channels Nav 1.7 (Homo sapiens, UniProt Q15858); assay: Automated whole-cell voltage-clamp (ScreenPatch 384P) sodium current block, Nav 1.7; format: cell-based; details: CHO cells stably expressing human Nav 1.7; inactivation step -40 mV for 8 seconds, test step 0 mV (TP1A); exposure at least five minutes; room temperature; mean if two or more assays; read-out: Nav1.7 IC50
T2 construct: expressed in transfected cells
T2 sequence (Q15858 whole entry): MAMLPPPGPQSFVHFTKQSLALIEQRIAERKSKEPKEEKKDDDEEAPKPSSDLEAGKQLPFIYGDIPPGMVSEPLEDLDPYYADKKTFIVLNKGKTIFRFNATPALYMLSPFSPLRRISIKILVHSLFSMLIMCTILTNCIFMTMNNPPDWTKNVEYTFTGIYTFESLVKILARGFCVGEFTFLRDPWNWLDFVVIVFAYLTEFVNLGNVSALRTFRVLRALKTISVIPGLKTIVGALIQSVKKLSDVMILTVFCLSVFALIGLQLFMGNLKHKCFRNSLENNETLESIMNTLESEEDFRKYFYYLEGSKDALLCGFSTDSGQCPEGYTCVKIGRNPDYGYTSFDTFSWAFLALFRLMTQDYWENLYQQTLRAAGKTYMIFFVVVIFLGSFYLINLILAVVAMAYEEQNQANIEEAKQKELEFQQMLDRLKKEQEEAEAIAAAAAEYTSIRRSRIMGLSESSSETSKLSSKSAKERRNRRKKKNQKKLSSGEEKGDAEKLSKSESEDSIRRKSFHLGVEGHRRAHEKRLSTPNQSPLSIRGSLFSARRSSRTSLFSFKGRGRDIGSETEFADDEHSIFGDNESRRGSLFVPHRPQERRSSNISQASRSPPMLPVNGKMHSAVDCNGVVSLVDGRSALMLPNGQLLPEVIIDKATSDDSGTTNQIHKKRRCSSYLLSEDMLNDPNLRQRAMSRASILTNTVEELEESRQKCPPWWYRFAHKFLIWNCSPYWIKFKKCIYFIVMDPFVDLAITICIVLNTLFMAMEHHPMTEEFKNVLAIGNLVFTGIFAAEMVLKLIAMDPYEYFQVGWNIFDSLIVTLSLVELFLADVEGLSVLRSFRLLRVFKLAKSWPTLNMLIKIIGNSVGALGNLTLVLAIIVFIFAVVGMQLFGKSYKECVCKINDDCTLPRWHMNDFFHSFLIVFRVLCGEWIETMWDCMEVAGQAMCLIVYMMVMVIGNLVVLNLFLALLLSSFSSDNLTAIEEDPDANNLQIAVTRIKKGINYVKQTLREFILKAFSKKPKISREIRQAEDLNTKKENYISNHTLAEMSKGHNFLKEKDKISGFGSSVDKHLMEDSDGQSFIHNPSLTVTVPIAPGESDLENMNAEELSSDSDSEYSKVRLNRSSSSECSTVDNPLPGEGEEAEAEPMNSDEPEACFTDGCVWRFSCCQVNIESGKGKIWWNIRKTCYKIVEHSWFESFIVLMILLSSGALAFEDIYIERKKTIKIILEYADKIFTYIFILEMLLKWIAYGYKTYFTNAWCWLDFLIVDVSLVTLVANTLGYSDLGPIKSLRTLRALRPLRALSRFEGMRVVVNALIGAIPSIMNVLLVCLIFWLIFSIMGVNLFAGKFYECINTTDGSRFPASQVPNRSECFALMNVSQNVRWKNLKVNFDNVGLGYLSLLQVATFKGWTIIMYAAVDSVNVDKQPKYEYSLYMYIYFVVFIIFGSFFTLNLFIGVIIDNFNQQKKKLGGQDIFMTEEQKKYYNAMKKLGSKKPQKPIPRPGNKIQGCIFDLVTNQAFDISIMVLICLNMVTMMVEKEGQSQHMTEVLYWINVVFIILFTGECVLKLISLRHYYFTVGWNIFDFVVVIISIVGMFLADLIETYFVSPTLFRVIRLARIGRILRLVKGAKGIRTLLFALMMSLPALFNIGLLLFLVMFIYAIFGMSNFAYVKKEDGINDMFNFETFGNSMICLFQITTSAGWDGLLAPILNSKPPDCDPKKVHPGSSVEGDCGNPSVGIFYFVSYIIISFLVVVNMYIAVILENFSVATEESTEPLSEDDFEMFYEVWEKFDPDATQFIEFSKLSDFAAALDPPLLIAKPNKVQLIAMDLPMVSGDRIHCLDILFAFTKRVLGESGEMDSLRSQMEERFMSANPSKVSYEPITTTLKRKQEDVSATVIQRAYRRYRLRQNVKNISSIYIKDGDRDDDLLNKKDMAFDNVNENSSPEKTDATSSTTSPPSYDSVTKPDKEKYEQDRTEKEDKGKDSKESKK
Method: as §1, §2, §3, §4, §5, §6, §7, §8

Compound | IC50 [1] [nM] | IC50 [2] [nM]
O=C(NOCc1ccccn1)c1cncc(-c2ccc(OC(F)(F)F)nc2)n1 [Compound 73] | < 500 | > 1000
CCOc1ccc(-c2cncc(C(=O)NOCc3ccccc3O)n2)cc1 [Compound 6, 6-(4-ethoxyphenyl)-N-((2-hydroxybenzyl)oxy)pyrazine-2-carboxamide] | > 1000 | > 1000
CCOc1ccc(-c2cncc(C(=O)NOCc3nccn3CC)n2)cn1 [Compound 61, 6-(6-ethoxypyridine-3-yl)-N-((1-ethyl-1H-imidazole-2-yl)methoxy)pyrazine-2-carboxamide] | < 500 | > 1000
CCOc1ccc(-c2cncc(C(=O)NOCc3occc3OC)n2)cn1 [Compound 66, 6-(6-ethoxypyridine-3-yl)-N-((3-methoxyfuran-2-yl)methoxy)pyrazine-2-carboxamide] | > 1000 | > 1000
CCOc1ccc(-c2cncc(C(=O)NOCc3ccccc3F)n2)cc1 [Compound 4, 6-(4-ethoxyphenyl)-N-((2-fluorobenzyl)oxy)pyrazine-2-carboxamide] | < 500 | 500 to 1000
COc1cnc(F)c(CONC(=O)c2nc(-c3ccc(OC(F)F)nc3)cnc2N)c1 [Compound 120] | > 1000 | > 1000
COc1ccc(F)c(CONC(=O)c2cncc(-c3ccc(OC(F)(F)F)nc3)n2)c1 [Compound 76] | < 500 | 500 to 1000
COc1ccc(F)c(CONC(=O)c2cncc(-c3ccc([S+](C)[O-])cc3)n2)c1 (stereo not drawn) [Compound 29, N-((2-fluoro-5-methoxybenzyl)oxy)-6-(4-(methylsulfinyl)phenyl)pyrazine-2-carboxamide] | > 1000 | > 1000
CCOc1ccc(-c2cncc(C(=O)NOCc3[nH]cnc3C)n2)cn1 [Compound 59, 6-(6-ethoxypyridine-3-yl)-N-((4-methyl-1H-imidazole-5-yl)methoxy)pyrazine-2-carboxamide] | > 1000 | > 1000
CCOc1ccc(-c2cnc(N)c(C(=O)NOCc3cc(OC)ccc3F)n2)cn1 [Compound 103] | 500 to 1000 | > 1000
COc1ccc(F)c(CONC(=O)c2cncc(-c3ccc([S+](C)[O-])nc3)n2)c1 (stereo not drawn) [Compound 84] | < 500 | > 1000
COc1ccc(F)c(CONC(=O)c2cncc(-c3ccc(OC(F)F)nc3)c2)c1 [Compound 116] | < 500 | > 1000
COc1ccc(F)c(CONC(=O)c2ccnc(-c3ccc(OC(F)F)nc3)n2)c1 [Compound 118] | < 500 | > 1000
CCOc1ccc(-c2cncc(C(=O)NOCc3cc(OC)ccc3F)n2)c(C)c1 [Compound 86] | < 500 | > 1000
CCOc1ccc(-c2cncc(C(=O)NOCc3cc(OC(C)C)ccc3F)n2)cc1 [Compound 10, 6-(4-ethoxyphenyl)-N-((2-fluoro-5-isopropoxybenzyl)oxy)pyrazine-2-carboxamide] | < 500 | > 1000
O=C(NOCc1ccccc1F)c1cncc(-c2ccc(OC(F)(F)F)nc2)n1 [Compound 71] | < 500 | < 500
CCOc1ccc(-c2cncc(C(=O)NOCc3cncn3C(C)C)n2)cn1 [Compound 63] | > 1000 | > 1000
CCOc1ccc(-c2cncc(C(=O)NOCc3cc(OC)ccc3F)n2)c(O)c1 [Compound 85] | > 1000 | > 1000
CCOc1ccc(-c2cncc(C(=O)NOCc3cc(OC)cnc3C)n2)cn1 [Compound 46, 6-(6-ethoxypyridine-3-yl)-N-((5-methoxy-2-methylpyridine-3-yl)methoxy)pyrazine-2-carboxamide] | > 1000 | > 1000
COc1ccc(F)c(CONC(=O)c2cncc(-c3ccc(OC(C)C)cc3)n2)c1 [Compound 3, N-((2-fluoro-5-methoxybenzyl)oxy)-6-(4-isopropoxyphenyl)pyrazine-2-carboxamide] | < 500 | < 500

Compound | IC50 [1] [nM] | IC50 [2] [nM]
CCOc1ccc(-c2cncc(C(=O)NOCc3cc(OC)ncc3F)n2)cc1 [Compound 13, 6-(4-ethoxyphenyl)-N-((5-fluoro-2-methoxypyridine-4-yl)methoxy)pyrazine-2-carboxamide] | < 500 | > 1000
CCOc1ccc(-c2cncc(C(=O)NOCc3cc(O)ccc3F)n2)cn1 [Compound 43, 6-(6-ethoxypyridine-3-yl)-N-((2-fluoro-5-hydroxybenzyl)oxy)pyrazine-2-carboxamide] | > 1000 | > 1000
COc1ccc(F)c(CONC(=O)c2nccc(-c3ccc(OC(F)F)nc3)n2)c1 [Compound 119] | < 500 | > 1000
CCOc1ccc(-c2cncc(C(=O)NOCc3cc(OC)ccc3O)n2)cc1 [Compound 16, 6-(4-ethoxyphenyl)-N-((2-hydroxy-5-methoxybenzyl)oxy)pyrazine-2-carboxamide] | > 1000 | > 1000
CCOc1ccc(-c2cncc(C(=O)NOCc3cc(C(C)N)ccc3F)n2)cn1 (stereo not drawn) [Compound 45, N-((5-(1-aminoethyl)-2-fluorobenzyl)oxy)-6-(6-ethoxypyridine-3-yl)pyrazine-2-carboxamide] | > 1000 | > 1000
CCOc1ccc(-c2cncc(C(=O)NOCc3cc(OC)ccc3C)n2)cn1 [Compound 47, 6-(6-ethoxypyridine-3-yl)-N-((5-methoxy-2-methylbenzyl)oxy)pyrazine-2-carboxamide] | > 1000 | > 1000
CCOc1ccc(-c2cncc(C(=O)NOCc3cccc(O)c3)n2)cc1 [Compound 7, 6-(4-ethoxyphenyl)-N-((3-hydroxybenzyl)oxy)pyrazine-2-carboxamide] | > 1000 | > 1000
CCOc1ccc(-c2cncc(C(=O)NOCc3ccnn3C(C)C)n2)cn1 [Compound 64] | > 1000 | > 1000
CCOc1ccc(-c2cncc(C(=O)NOCc3cc(OC)ncc3F)n2)cn1 [Compound 39, 6-(6-ethoxypyridine-3-yl)-N-((5-fluoro-2-methoxypyridine-4-yl)methoxy)pyrazine-2-carboxamide] | < 500 | > 1000
O=C(NOCc1ccncc1)c1cncc(-c2ccc(OC(F)(F)F)nc2)n1 [Compound 75] | < 500 | < 500
[2H]C([2H])([2H])C([2H])([2H])Oc1ccc(-c2cncc(C(=O)NOCc3cc(OC)ccc3F)n2)cn1 [Compound 48, 6-(6-(ethoxy-d5)pyridine-3-yl)-N-((2-fluoro-5-methoxybenzyl)oxy)pyrazine-2-carboxamide] | > 1000 | > 1000
CCOc1ccc(-c2cncc(C(=O)NOCc3cccc(O)c3)n2)cn1 [Compound 35, 6-(6-ethoxypyridine-3-yl)-N-((3-hydroxybenzyl)oxy)pyrazine-2-carboxamide] | < 500 | > 1000
CCOc1ccc(-c2cncc(C(=O)NOCc3cccc(OC)c3)n2)cn1 [Compound 33, 6-(6-ethoxypyridine-3-yl)-N-((3-methoxybenzyl)oxy)pyrazine-2-carboxamide] | < 500 | > 1000
CCOc1ccc(-c2cncc(C(=O)NOCc3cc(OC)ccc3C3CC3)n2)cc1 [Compound 15, N-((2-cyclopropyl-5-methoxybenzyl)oxy)-6-(4-ethoxyphenyl)pyrazine-2-carboxamide] | < 500 | < 500
CCOc1ccc(-c2cncc(C(=O)NOCc3cc(N(C)C)cnc3F)n2)cn1 [Compound 41, N-((5-(dimethylamino)-2-fluoropyridine-3-yl)methoxy)-6-(6-ethoxypyridine-3-yl)pyrazine-2-carboxamide] | < 500 | > 1000
CCOc1ccc(-c2cncc(C(=O)NOCc3cc(OC)ccc3F)n2)c(C)n1 [Compound 92] | < 500 | > 1000
CCOc1ccc(-c2cncc(C(=O)NOCc3cc(OC)cnc3C)n2)cc1 [Compound 18, 6-(4-ethoxyphenyl)-N-((5-methoxy-2-methylpyridine-3-yl)methoxy)pyrazine-2-carboxamide] | < 500 | 500 to 1000
COc1ccc(F)c(CONC(=O)c2cccc(-c3ccc(OC(F)F)nc3)n2)c1 [Compound 115] | > 1000 | > 1000
COc1ccc(F)c(CONC(=O)c2cncc(-c3ccc(OC(F)F)cc3OC)n2)c1 [Compound 88] | > 1000 | > 1000
